Source: US9718809B2, “Bisarylsulfonamides useful in the treatment of inflammation and cancer” (Kancera AB, priority 2011, dated 2017)
Counter-ions that a name gives are not always drawn.

System: F-2,6-P2 in PANC-1 cells
Test: Quantification of F-2,6-P2 (Van Schaftingen coupled enzyme assay) in PANC-1 cells
Format: cell-based, human
Conditions: Homo sapiens; PANC-1 cells; read-out: IC50 based on quantification of F-2,6-P2
Text: A method for quantification of F-2,6-P2 has been described by Van Schaftingen et al. (1982) Eur. J. Biochem. 129, 191-5. This sensitive assay is based on the potent activation of pyrophosphate dependent phosphofructokinase-1 (PPi-PFK) from potato tubers by F-2,6-P2. The use of a series of coupled enzymes leads to a consumption of NADH (nicotinamide adenine dinucleotide) that can be followed spectrophotometrically (an updated protocol is available in Van Schaftingen, (1984) Methods of Enzymatic Analysis (Bergmeyer, H. U., ed.), 3rd edn., vol. 6, pp. 335-341, Verlag Chemie, Weinheim). A protocol for measurements in 96-well microtiter plate format is also available (Bruni et al., (1989) Anal. Biochem. 178, 324-6).
The levels of F-2,6-P2 have been determined using the van Shaftingen assay as described in the protocol below, in six different cancer cell lines endogenously expressing varying levels of the different isoforms of PFK-2/BPase-2 (MCF-7, PANC-1, NUGC-3, SW480, SW620 and MIA PaCa-2). All reagents were purchased from commercial sources or prepared in-house.
Cell line B (PANC-1, human pancreatic carcinoma cell line): PANC-1 cells (ATCC-CRL-1469), lot. no. 58564651. Cells were seeded at a concentration of ˜250 000 cells/mL in 100 μL growth medium (˜25 000 cells/well).
Growth medium (cell lines B-F): Dulbecco's Modified Eagle's Medium, DMEM, VWR, LONZ12-604F; 10% FBS, Invitrogen, 10270-106.
Starvation medium (cell lines A-F): DMEM/F12 without phenol red and glucose free, SVA, 991373; 0.25% FBS, Invitrogen, 10270-106.
Induction medium (cell lines A-F): DMEM/F12 without phenol red and glucose free, SVA, 991373; 0.25% FBS, Invitrogen, 10270-106 (same as starvation medium).
Cells were seeded in 96-well Corning Costar tissue culture plates (CLS3595, Sigma-Aldrich) using the concentrations specified above for the different cell lines A-F and incubated over night at 37° C. and 5% CO2. Row A in the plate was left empty and the cell lines added to rows B-H. Next day the growth medium was discarded and replaced with 100 μL starvation medium. The plates were incubated for 18 h at 37° C. and 5% CO2. After 18 h of starvation the cells were induced with 100 μL compound or control solutions. Compounds were either tested in two concentrations (50 μM and 10 μM) or in dose response curves starting from 50 μM. The final DMSO concentration in assay plates was 0.5%. Also a dose response curve of a reference inhibitor was included in row H on each plate. All compounds were tested in duplicate plates. Compounds (in 96 well CLS 3365, Sigma-Aldrich plates) were serial diluted in DMSO from 10 mM compound DMSO stock solutions with Janus (automated liquid handling workstation from PerkinElmer). Five μL were transferred to a Greiner deep well plate (736-0155, VWR) with 495 μL starvation medium. The final start concentration of compounds in the dilution plate was 100 μM, 1% DMSO. For compounds tested as single points, 10 mM compound solutions were diluted five fold in DMSO to 2 mM, followed by the transfer of 5 μL to separate dilution plates with 495 μL starvation medium. The final concentrations of compounds in these dilution plates were 100 or 20 μM, respectively, and final concentration of DMSO was 1%. The plates were incubated at 37° C. and 5% CO2 for 1 h, followed by the addition of 10 μL 20 mM D-glucose in starvation medium. Controls, with and without 1 mM glucose, were included in row B. The final assay volume was 210 μL per well. After 2 h of incubation at 37° C. and 5% CO2, the supernatants were discarded and the cells lysed by the addition of 25 μL 250 mM NaOH. The plates were incubated at 37° C. and 5% CO2 for 5 min followed by an addition of 75 μL MilliQ dH2O. The supernatants were further diluted with 210 μL MilliQ dH2O to a final concentration of 20 mM NaOH. 200 μL were transferred to NUNC 96-well plates (7322661, VWR) and the plates were sealed and stored at −20° C. until analysis. […]

| IC50 | SMILES |
| --- | --- |
| 1.9 µM | COC(=O)c1ccc(NS(=O)(=O)c2cnc(Cl)c(Br)c2)cc1O [Example 14, Methyl 4-{[(5-bromo-6-chloropyridin-3-yl)sulfonyl]amino}-2-hydroxybenzoate] |
| 1.4 µM | O=C(OCCO)c1ccc(NS(=O)(=O)c2cc(-c3ccccc3)c(Cl)s2)cc1O [Example 217, 2-Hydroxyethyl 4-{[(5-chloro-4-phenyl-2-thienyl)sulfonyl]amino}-2-hydroxybenzoate] |
| 1.2 µM | COCCOC(=O)c1ccc(NS(=O)(=O)c2cc(-c3ccccc3O)c(Cl)s2)cc1O [Example 133, 2-Methoxyethyl 4-({[5-chloro-4-(2-hydroxyphenyl)-2-thienyl]sulfonyl}amino)-2-hydroxybenzoate] |
| 5.9 µM | COC(=O)c1ccc(NS(=O)(=O)Cc2cccc(-c3ccc4c(c3)CCO4)c2)cc1O [Example 122, Methyl 4-({[3-(2,3-dihydro-1-benzofuran-5-yl)benzyl]sulfonyl}amino)-2-hydroxybenzoate] |
| 2 µM | COCC(COC)OC(=O)c1ccc(NS(=O)(=O)c2cc(-c3cccc(F)c3)c(Cl)s2)cc1O [Example 222, 2-Methoxy-1-(methoxymethyl)ethyl 4-({[5-chloro-4-(3-fluorophenyl)-2-thienyl]sulfonyl}amino)-2-hydroxybenzoate] |
| 1.8 µM | O=C(OC1CCN(Cc2ccccc2)C1)c1ccc(NS(=O)(=O)c2c(Cl)sc(Cl)c2Cl)cc1O (centres unmarked) [Example 204, 1-Benzylpyrrolidin-3-yl 2-hydroxy-4-{[(2,4,5-trichloro-3-thienyl)sulfonyl]amino}benzoate] |
| 4.9 µM | COC(=O)c1ccc(NS(=O)(=O)c2cnc(Cl)c(-c3ccc4c(c3)CCO4)c2)cc1O [Example 155, Methyl 4-({[6-chloro-5-(2,3-dihydro-1-benzofuran-5-yl)pyridin-3-yl]sulfonyl}amino)-2-hydroxybenzoate] |
| 5.2 µM | O=C(OC1CCOC1)c1ccc(NS(=O)(=O)c2cc(Cl)sc2Cl)cc1O (centres unmarked) [Example 67, Tetrahydrofuran-3-yl 4-{[(2,5-dichloro-3-thienyl)sulfonyl]amino}-2-hydroxybenzoate] |
| 4.5 µM | COC(=O)c1ccc(NS(=O)(=O)c2cccc(-c3ccc4ncccc4c3)c2)cc1O [Example 91, Methyl 2-hydroxy-4-{[(3-quinolin-6-ylphenyl)sulfonyl]amino}benzoate trifluoroacetate] |
| 5.7 µM | COC(=O)c1ccc(NS(=O)(=O)c2cc(Br)c(F)cc2F)cc1O [Example 49, Methyl 4-{[(5-bromo-2,4-difluorophenyl)sulfonyl]amino}-2-hydroxybenzoate] |
| 3.6 µM | COC(=O)c1ccc(NS(=O)(=O)c2ccc(F)c3ccccc23)cc1O [Example 33, Methyl 4-{[(4-fluoro-1-naphthyl)sulfonyl]amino}-2-hydroxybenzoate] |
| 12.3 µM | COC(=O)c1ccc(NS(=O)(=O)c2cccc(Br)c2)cc1O [Example 5, Methyl 4-{[(3-bromophenyl)sulfonyl]amino}-2-hydroxybenzoate] |
| 1.4 µM | COC(=O)c1ccc(NS(=O)(=O)Cc2ccc(-c3ccccc3O)cc2)cc1O [Example 126, Methyl 2-hydroxy-4-({[(2′-hydroxybiphenyl-4-yl)methyl]sulfonyl}amino)benzoate] |
| 1.7 µM | COC(=O)c1ccc(NS(=O)(=O)c2cccc(-c3ccc(C(C)=O)s3)c2)cc1O [Example 95, Methyl 4-({[3-(5-acetyl-2-thienyl)phenyl]sulfonyl}amino)-2-hydroxybenzoate] |
| 8.9 µM | COC(=O)c1ccc(NS(=O)(=O)c2cc(Cl)c(-c3ccccc3O)s2)cc1O [Example 206, Methyl 4-({[4-chloro-5-(2-hydroxyphenyl)thiophen-2-yl]sulfonyl}amino)-2-hydroxybenzoate] |
| 3.1 µM | COC(=O)c1ccc(NS(=O)(=O)c2c(Cl)sc(Cl)c2C)cc1O [Example 53, Methyl 4-{[(2,5-dichloro-4-methyl-3-thienyl)sulfonyl]amino}-2-hydroxybenzoate] |
| 0.2 µM | CCCCOC(=O)c1ccc(NS(=O)(=O)c2cc(Cl)c(Cl)s2)cc1O [Example 70, Butyl 4-{[(4,5-dichloro-2-thienyl)sulfonyl]amino}-2-hydroxybenzoate] |
| 6.7 µM | COC(=O)c1ccc(NS(=O)(=O)c2cc(C(F)(F)F)oc2C)cc1O [Example 10, Methyl 2-hydroxy-4-({[2-methyl-5-(trifluoromethyl)furan-3-yl]sulfonyl}amino)benzoate] |
| 2.4 µM | COC(=O)c1ccc(NS(=O)(=O)c2cc(-c3cccc(C(=O)N(C)C)c3)c(Cl)s2)cc1O [Example 143, Methyl 4-[({5-chloro-4-[3-(dimethylcarbamoyl)phenyl]thiophen-2-yl}sulfonyl)amino]-2-hydroxybenzoate] |

Same assay, conditions: at 12.5-50 μM in PANC-1 cells

| SMILES | inhibition (F-2,6-P2 levels) |
| --- | --- |
| COC(=O)c1ccc(NS(=O)(=O)c2ccc(Cl)cc2)cc1O [Example 42, Methyl 4-{[(4-chlorophenyl)sulfonyl]amino}-2-hydroxybenzoate] | ≥ 50% |
| COC(=O)c1ccc(NS(=O)(=O)c2ccc(-c3ccccc3)cc2)cc1O [Example 35, Methyl 4-[(biphenyl-4-ylsulfonyl)amino]-2-hydroxybenzoate] | ≥ 50% |
| COC(=O)c1ccc(NS(=O)(=O)c2cccc(OC)c2)cc1O [Example 121, Methyl 2-hydroxy-4-{[(3-methoxyphenyl)sulfonyl]amino}benzoate] | ≥ 50% |
| COC(=O)c1ccc(NS(=O)(=O)c2c(C)cccc2Cl)cc1O [Example 43, Methyl 4-{[(2-chloro-6-methylphenyl)sulfonyl]amino}-2-hydroxybenzoate] | ≥ 50% |
| O=C(Oc1ccccc1)c1ccc(NS(=O)(=O)c2cc(Cl)c(Cl)s2)cc1O [Example 73, Phenyl 4-{[(4,5-dichloro-2-thienyl)sulfonyl]amino}-2-hydroxybenzoate] | ≥ 50% |
| COC(=O)c1cccc(-c2cc(S(=O)(=O)Nc3ccc(C(=O)OC)c(O)c3)sc2Cl)c1 [Example 77, Methyl 4-[({5-chloro-4-[3-(methoxycarbonyl)phenyl]thiophen-2-yl}sulfonyl)amino]-2-hydroxybenzoate] | ≥ 50% |
| O=C(O)C(F)(F)F.O=C(OCCOc1ccc(Cl)nc1)c1ccc(NS(=O)(=O)c2cc(Cl)c(Cl)s2)cc1O [Example 226, 2-[(6-Chloropyridin-3-yl)oxy]ethyl 4-{[(4,5-dichloro-2-thienyl)sulfonyl]amino}-2-hydroxybenzoate trifluoroacetate] | ≥ 50% |
| COC(=O)c1ccc(NS(=O)(=O)c2cc(Cl)c(-c3ccccc3OC)s2)cc1O [Example 207, Methyl 4-({[4-chloro-5-(2-methoxyphenyl)thiophen-2-yl]sulfonyl}amino)-2-hydroxybenzoate] | ≥ 50% |
| COC(=O)c1ccc(NS(=O)(=O)Cc2cccc(Br)c2)cc1O [Example 23, Methyl 4-{[(3-bromobenzyl)sulfonyl]amino}-2-hydroxybenzoate] | ≥ 50% |
| CC(=O)Oc1cc(NS(=O)(=O)c2cccc3ccccc23)ccc1C(=O)OCc1ccccc1 [Example 140, Benzyl 2-acetoxy-4-[(1-naphthylsulfonyl)amino]benzoate] | ≥ 50% |
